Assay results published in publication PMC11990924, “Inhibition of Tyrosinase and Melanogenesis by Carboxylic Acids: Mechanistic Insights and Safety Evaluation” (Molecules, 2025).

Key:
tyrosinase = target: T1, tyrosinase (Agaricus bisporus, UniProt C7FF04); experiment: Kinetic analysis of tyrosinase (Lineweaver–Burk); format: biochemical, mushroom; conditions: for Ki: GraphPad Prism, mixed-model or competitive model, read-out: inhibition constant (Ki); for inhibition mechanism: Lineweaver–Burk double-reciprocal plots; for inhibition constant (KIS) for enzyme–substrate complex: mixed-type inhibitors
T1 construct: purchased Sigma-Aldrich
Method: L-DOPA solutions at various concentrations (0.5, 1, 2, and 4 mM) were prepared in PBS buffer (pH 7.4) and mixed with carboxylic acids at different concentrations and tyrosinase (final concentration of 60 U/mL). […] The reaction rates were calculated based on the OD values. To analyze the inhibition types of the four carboxylic acids on tyrosinase, double-reciprocal Lineweaver–Burk plots were constructed with 1/v (reaction rate) as the y-axis and 1/[S] (substrate concentration) as the x-axis. The maximum reaction velocity (Vmax) and Michaelis constant (Km) were determined using GraphPad Prism 10 (GraphPad Software, Massachusetts, USA).

[1] = pH of carboxylic acid mixed with PBS buffer, without tyrosinase; format: physicochemical; conditions: in PBS buffer, absence of tyrosinase
[2] = Cell viability of B16-F10 by MTT; format: cell-based; conditions: mouse, B16-F10 cells, 6 mM
Method: B16-F10 cells were seeded in 96-well plates at a density of 1 × 10^5 cells/mL and cultured at 37 °C with 5% CO2 for 24 h. Subsequently, various concentrations of carboxylic acids were added, and the cells were further incubated for 24 h. Then, 6 μL of MTT (5 mg/mL) was added, and the cells were cultured for an additional 4 h. Afterward, 200 μL of DMSO was added to dissolve the formazan crystals by gently pipetting up and down. The absorbance at 570 nm (OD570) was measured using a microplate reader (Infinite 200Pro, Tecan), with deionized water serving as the control. The cell viability was calculated with Equation (2): (2) [(OD570 of sample)/OD570 of control]×100%

B16-F10 cells = experiment: Melanin content analysis of B16-F10 cells (α-MSH stimulated); format: cell-based; conditions: Mus musculus; 6 mM, B16-F10, α-MSH 1 μM, 48 h; read-out: melanin inhibition rate
Method: A 900 μL cell suspension with an approximate density of 50% confluence was seeded into a 12-well plate and cultured for 24 h at 37 °C with 5% CO2. Subsequently, various concentrations of carboxylic acids were added, and the cells were further incubated for 1 h. Then, 1 μL of 1 mM α-melanocyte-stimulating hormone (α-MSH) solution was added to achieve a final concentration of 1 μM, and the cells were cultured for an additional 48 h at 37 °C with 5% CO2 to stimulate melanogenesis. Afterward, the cells were digested with trypsin, collected by centrifugation at 10,000 rpm for 5 min (Andreas Hettich GmbH & Co., KG, Tuttlingen, Germany), and the supernatant was discarded. Each tube was treated with 200 μL of 1 M NaOH solution and incubated in a water bath at 60 °C for 20 min. Following incubation, the samples were vortexed to ensure homogeneity, and 200 μL of each sample was transferred to a 96-well plate. The absorbance at 405 nm (OD405) was measured using a microplate reader (Infinite 200Pro, Tecan), and the data were recorded to calculate the melanin content, with deionized water serving as the control. The reduction in melanin content was calculated with Equation (3):(3) [(OD405 of control−OD405 of sample)/OD405 of control]×100%

T1 sequence (C7FF04 1-392 limits assumed): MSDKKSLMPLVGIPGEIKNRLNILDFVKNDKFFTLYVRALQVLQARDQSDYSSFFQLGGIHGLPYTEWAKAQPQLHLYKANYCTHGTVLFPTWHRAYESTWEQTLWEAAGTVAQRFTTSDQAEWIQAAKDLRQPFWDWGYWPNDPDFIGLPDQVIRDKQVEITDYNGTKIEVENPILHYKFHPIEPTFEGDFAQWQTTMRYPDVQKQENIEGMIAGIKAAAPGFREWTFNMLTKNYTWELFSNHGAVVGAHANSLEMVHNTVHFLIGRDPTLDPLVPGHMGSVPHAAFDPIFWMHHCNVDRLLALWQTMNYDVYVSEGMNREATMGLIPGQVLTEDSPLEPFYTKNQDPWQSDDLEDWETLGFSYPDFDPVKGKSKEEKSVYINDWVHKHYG

SMILES	Ki (tyrosinase) [µM]	inhibition mechanism (tyrosinase)	inhibition constant (KIS) for enzyme–substrate complex (tyrosinase) [mM]	pH ([1]; 6 mM)	viability at 24 h, 6 mM [2] [%]	inhibition at 6000 µM (B16-F10 cells) [%]	pH ([1]; 3 mM)
O=C(O)C(O)Cc1ccccc1 (stereo not shown) [3-phenyllactic acid]	1570	mixed-type inhibition	8.526	around 6	> 90	27.2	–
O=C(O)CC(O)C(=O)O (stereo not shown) [malic acid]	606	mixed-type inhibition	3.066	3.5	> 90	33.6	4.6
